These results are taken from US20150166524A1, “CRYSTALLINE FORM OF MASITINIB” (SANDOZ AG, priority 2013, published 2015).

The conditions of data set [1]: cited from earlier work.
The conditions of data set [2]: cited from earlier work; for polymorphic conversion: DRX2: upon temperature increase, DRX3: outside dry conditions.
A short description of data set [3]: Dynamic Vapour Sorption (DVS) hygroscopicity. The format is physicochemical. The method, then:
Dynamic Vapour Sorption (DVS) was performed using a Hiden Analytical Instruments IGAsorp Vapour Sorption Balance. Approximately 30 mg of sample was placed into a wire-mesh vapour sorption balance pan, loaded into the IGAsorp vapour sorption balance and held at 25° C.±0.1° C. The sample was subjected to a step profile from 40% RH to 90% RH at 10% increments, followed by desorption from 90% RH to 0% RH at 10% increments and a second adsoriotn cycle from 0% RH to 90% RH. The equilibrium criterion was set to 99.0% step completion within a minimum of 60 minutes and a maximum of 5 hours for each increment. The weight change during the sorption cycle was monitored, allowing for the hygroscopic nature of the sample to be determined. The data collection interval was in seconds.
The hygrosopicity of masitinib mesylate form H as obtained from example 2 was assessed by DVS. The DVS isotherm was initiated at 40% r.h. and increased to 70% r.h. The weight gain in this relative humidity interval was below 0.27% (w/w).

Data set [4] can be described thus: Behaviour on heating by TG/DTA. The format is physicochemical. Conditions: lost small amounts of water. The method, then:
Thermogravimetric analyses were carried out on a Mettler Toledo TGA/DSC1 STARe. The calibration standards were indium and tin. Samples were placed in an aluminium sample pan, inserted into the TG furnace and accurately weighed. The heat flow signal was stabilised for one minute at 30° C., prior to heating to 270° C. in a stream of nitrogen at a rate of 10° C./minute.
Masitinib mesylate (25 mg) was charged into a scintillation vial followed by methanol (containing small amounts of water; 1.0 mL). The suspension was then heated until the masitinib mesylate had dissolved. The masitinib mesylate solution in methanol was then allowed to slowly cool to room temperature. The crystals which formed were then harvested by filtration and analyzed by XRPD and TG/DTA.

Where [5] appears, read: as described in response to the eESR.

On to Masitinib mesylate [crystal form I], for which the “behaviour at 80% relative humidity” value in data set [1] (80% relative humidity) is given as “remains dry”. In addition, the thermodynamic stability entry in data set [1] (at temperatures below 200° C.) is given as “thermodynamically stable”. The hygroscopicity entry in data set [2] (setting [5]) is “mildly hygroscopic”.
With Masitinib mesylate [form H], in data set [3] (DVS), the “hygroscopicity compared with form I” value was “less hygroscopic than masitinib mesylate form I”. In addition, the “weight gain in relative humidity interval (DVS)” value in data set [3] (DVS isotherm from 40% r.h. to 70% r.h., form H from example 2) is on record as “below 0.27 % (w/w)”. Besides, the “water absorbed (DVS)” value in data set [3] (interval of relative humidity between 40% and 70% r.h.) is reported as “less than 0.5 weight %”.
For the substance “masitinib mesylate [Comparative Example]”, the “polymorphic conversion upon heating” value in data set [4] is given as “converted to masitinib mesylate crystal form I upon heating”.
For masitinib mesylate [DRX2], the polymorphic conversion result in data set [2] is recorded as “slowly, but fully, converts to DRX1”. Besides, the polymorphic stability result in data set [2] (setting [5]) is “stable only at 25 °C”.
With masitinib mesylate [DRX3], the polymorphic conversion entry in data set [2] is given as “quickly converts to DRX2”. In data set [2] (setting [5]), the polymorphic stability result is listed as “stable under dry conditions only”.
